Measurements: ChEMBL document CHEMBL5465560, “Selectivity Literature for EUbOPEN Chemogenomic Library” (2024)
Each block holds one molecule with its values, some of them ahead of it.

Assays:
[1] = target: Ribosomal protein S6 kinase alpha-4 (Homo sapiens) (UniProt O75676); test: Selectivity interaction (Kinase panel (Z-LYTE Assay)) EUB0001632a RPS6KA4; conditions: at 10 µM
[2] = target: SRSF protein kinase 2 (Homo sapiens) (UniProt P78362); test: Selectivity interaction (KinomeScan (DiscoverX)) EUB0000666a SRPK2; conditions: at 10 µM
Chain of SRSF protein kinase 2 (Homo sapiens) (P78362 whole entry, looked up): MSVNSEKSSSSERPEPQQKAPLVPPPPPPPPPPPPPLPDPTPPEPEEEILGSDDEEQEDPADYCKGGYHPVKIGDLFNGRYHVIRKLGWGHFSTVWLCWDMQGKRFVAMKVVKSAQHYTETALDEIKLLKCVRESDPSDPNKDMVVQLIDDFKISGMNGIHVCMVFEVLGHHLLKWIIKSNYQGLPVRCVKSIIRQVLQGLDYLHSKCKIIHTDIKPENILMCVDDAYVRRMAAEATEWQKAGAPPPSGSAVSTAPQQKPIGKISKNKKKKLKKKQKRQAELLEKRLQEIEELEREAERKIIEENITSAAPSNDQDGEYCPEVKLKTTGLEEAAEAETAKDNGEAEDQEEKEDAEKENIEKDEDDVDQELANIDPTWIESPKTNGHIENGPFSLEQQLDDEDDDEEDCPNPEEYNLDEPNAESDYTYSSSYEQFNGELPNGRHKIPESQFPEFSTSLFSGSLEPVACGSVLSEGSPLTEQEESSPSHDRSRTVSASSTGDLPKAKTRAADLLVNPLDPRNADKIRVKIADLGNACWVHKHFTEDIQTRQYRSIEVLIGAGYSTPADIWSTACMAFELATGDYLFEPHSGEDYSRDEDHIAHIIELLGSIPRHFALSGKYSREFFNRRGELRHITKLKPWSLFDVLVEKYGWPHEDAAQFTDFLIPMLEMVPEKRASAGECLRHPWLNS

[3] = target: MAP kinase-activated protein kinase 3 (Homo sapiens) (UniProt Q16644); test: Selectivity interaction (Kinase panel (Invitrogen)) EUB0000639a MAPKAPK3; conditions: at 200 nM
Chain of MAP kinase-activated protein kinase 3 (Homo sapiens) (Q16644 whole entry, looked up): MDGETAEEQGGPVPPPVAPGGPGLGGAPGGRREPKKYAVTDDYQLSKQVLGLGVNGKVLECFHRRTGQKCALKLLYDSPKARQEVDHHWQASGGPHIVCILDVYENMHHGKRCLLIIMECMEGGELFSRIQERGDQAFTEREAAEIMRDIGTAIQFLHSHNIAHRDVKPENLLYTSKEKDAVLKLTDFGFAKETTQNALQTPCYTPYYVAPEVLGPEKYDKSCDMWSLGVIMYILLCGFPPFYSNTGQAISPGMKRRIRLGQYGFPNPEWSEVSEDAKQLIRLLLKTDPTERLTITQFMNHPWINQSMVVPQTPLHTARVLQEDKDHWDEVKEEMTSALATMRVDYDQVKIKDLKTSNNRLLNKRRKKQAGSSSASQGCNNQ

[4] = target: T1, Mitogen-activated protein kinase kinase kinase 19 (Homo sapiens) (UniProt Q56UN5); test: Selectivity interaction (KinomeScan (DiscoverX)) EUB0001079a MAP3K19; conditions: at 1 µM
T1 sequence (whole entry): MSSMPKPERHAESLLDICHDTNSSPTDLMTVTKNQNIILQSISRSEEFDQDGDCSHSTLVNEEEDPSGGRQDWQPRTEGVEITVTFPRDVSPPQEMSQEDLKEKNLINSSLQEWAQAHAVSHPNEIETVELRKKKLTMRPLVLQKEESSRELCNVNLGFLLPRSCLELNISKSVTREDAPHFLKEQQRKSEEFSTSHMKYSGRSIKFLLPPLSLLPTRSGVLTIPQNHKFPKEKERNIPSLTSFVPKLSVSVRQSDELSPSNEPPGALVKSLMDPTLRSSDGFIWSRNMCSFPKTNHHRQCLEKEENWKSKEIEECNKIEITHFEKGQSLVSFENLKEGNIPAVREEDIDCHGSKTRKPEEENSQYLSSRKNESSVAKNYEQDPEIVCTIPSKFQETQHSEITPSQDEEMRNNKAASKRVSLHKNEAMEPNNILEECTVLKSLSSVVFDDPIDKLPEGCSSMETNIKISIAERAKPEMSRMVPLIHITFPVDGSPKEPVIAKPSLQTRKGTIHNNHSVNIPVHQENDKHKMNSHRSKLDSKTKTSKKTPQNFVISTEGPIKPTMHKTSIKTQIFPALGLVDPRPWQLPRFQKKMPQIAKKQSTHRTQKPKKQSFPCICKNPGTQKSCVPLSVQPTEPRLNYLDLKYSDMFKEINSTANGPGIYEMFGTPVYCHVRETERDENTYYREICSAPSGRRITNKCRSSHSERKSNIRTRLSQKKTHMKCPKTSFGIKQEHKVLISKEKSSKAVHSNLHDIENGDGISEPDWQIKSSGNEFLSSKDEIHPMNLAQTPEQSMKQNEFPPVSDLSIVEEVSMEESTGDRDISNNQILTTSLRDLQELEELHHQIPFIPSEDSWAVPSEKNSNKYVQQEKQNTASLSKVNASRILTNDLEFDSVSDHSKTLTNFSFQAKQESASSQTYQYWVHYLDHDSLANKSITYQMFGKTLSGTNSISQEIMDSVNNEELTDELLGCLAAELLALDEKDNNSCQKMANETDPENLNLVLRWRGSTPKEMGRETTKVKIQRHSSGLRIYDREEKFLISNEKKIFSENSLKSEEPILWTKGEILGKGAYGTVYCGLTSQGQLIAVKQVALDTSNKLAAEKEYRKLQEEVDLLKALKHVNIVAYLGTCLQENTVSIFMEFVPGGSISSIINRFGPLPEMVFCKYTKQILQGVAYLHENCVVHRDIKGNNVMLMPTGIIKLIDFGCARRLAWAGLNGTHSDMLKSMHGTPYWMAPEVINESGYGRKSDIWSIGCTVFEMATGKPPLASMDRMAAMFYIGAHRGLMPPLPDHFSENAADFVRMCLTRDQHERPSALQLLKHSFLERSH

[5] = system: T2, Receptor-type tyrosine-protein kinase FLT3 (Homo sapiens), P36888 [N841I]; test: Selectivity interaction (KinomeScan (DiscoverX)) EUB0001619a FLT3; conditions: at 1 µM
T2 sequence (whole entry): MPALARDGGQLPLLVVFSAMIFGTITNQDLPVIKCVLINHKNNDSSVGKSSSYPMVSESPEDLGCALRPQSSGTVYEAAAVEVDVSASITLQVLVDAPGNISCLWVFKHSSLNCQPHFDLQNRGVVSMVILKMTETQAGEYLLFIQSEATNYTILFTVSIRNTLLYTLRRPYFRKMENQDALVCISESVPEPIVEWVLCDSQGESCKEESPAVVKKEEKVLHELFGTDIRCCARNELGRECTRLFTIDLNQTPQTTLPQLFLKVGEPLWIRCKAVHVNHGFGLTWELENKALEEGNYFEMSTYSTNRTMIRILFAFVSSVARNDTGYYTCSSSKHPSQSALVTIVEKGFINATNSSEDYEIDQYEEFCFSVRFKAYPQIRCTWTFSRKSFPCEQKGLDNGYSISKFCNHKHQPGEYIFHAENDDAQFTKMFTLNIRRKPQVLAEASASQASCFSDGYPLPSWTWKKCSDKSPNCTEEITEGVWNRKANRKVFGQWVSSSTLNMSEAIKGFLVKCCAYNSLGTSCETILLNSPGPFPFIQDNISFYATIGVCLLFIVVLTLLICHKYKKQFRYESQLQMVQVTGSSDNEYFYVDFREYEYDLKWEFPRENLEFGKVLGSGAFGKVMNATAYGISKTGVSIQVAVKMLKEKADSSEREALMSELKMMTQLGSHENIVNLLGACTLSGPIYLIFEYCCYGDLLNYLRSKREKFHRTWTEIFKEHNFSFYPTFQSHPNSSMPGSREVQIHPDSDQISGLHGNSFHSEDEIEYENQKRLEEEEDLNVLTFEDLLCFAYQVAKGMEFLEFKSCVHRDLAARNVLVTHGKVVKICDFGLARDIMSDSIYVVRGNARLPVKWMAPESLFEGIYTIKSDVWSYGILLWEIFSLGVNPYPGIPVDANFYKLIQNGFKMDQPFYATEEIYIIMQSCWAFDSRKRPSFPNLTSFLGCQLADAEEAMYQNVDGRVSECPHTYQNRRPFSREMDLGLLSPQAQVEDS

Chain of Ribosomal protein S6 kinase alpha-4 (Homo sapiens) (O75676 whole entry, looked up): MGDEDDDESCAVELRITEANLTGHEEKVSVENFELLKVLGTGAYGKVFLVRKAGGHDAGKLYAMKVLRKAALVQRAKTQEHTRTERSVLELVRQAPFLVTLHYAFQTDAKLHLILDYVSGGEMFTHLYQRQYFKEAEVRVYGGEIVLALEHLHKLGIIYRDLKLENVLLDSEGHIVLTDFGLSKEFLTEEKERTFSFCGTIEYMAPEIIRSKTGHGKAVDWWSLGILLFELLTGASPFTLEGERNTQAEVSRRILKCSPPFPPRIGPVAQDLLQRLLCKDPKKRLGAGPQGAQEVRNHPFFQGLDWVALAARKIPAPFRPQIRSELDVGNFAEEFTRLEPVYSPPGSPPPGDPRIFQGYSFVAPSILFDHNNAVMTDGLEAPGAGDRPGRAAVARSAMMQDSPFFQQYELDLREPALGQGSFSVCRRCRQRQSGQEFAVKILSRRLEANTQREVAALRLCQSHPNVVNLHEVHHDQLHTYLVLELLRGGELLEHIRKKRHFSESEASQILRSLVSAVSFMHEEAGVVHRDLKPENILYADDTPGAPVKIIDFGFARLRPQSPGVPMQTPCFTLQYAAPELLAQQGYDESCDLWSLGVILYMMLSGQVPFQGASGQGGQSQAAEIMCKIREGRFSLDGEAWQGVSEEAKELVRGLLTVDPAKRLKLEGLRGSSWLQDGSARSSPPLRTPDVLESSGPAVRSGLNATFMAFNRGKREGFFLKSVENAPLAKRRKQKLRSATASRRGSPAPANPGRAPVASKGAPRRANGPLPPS

% of control [1]: 0.55%
Structure (SMILES): Cn1cc(-n2cnc3c(NCc4nc5cc(Cl)c(Cl)cc5[nH]4)nc(N4CCOCC4)nc32)cn1

Structure (SMILES): O=C(NOC[C@H](O)CO)c1ccc(F)c(F)c1Nc1ccc(I)cc1F
% of control [2]: 100%

% of inhibition [3]: 3.83%
Structure (SMILES): CC[C@@H]1[C@H](F)C(=O)N[C@@H]1COc1nccc2cc(C(N)=O)c(OC)cc12 [ZIMLOVISERTIB]

Structure (SMILES): Nc1cnc(N2CCc3cc(S(=O)(=O)Nc4c(F)cc(Cl)cc4F)cc(N4CCCC4=O)c32)nc1 [TP-020n]
% of control [4]: 100%

Structure (SMILES): N#Cc1cccc(-c2c[nH]c3ncnc(N4CCOCC4)c23)c1
% of control [5]: 100%
